These results are taken from patent US10335380B2, “Compounds suitable for the treatment of myeloproliferative neoplasms as well as methods for the diagnosis/prognosis of myeloproliferative neoplasms” (CNIC Fundacion Centro Nacional De investigaciones …, priority 2013, dated 2019).

In series [1] the test system is WT mice transplanted with control BM cells. The series can be described thus: In vivo treatment of WT mice transplanted with control BM cells (normal haematopoiesis). Also noted: species or system mouse. The method, then:
Age-matched, female wild-type C57BL/6J or Nes-gfp mice were used as recipients in bone marrow (BM) transplantation assays and for in vivo pharmacological treatments. Lethally irradiated (12 Gy) recipient mice were transplanted with 2×10^6 BM cells from Mx-Cre;JAK2V617F mice induced with plpC 8 weeks before, or from Cre-negative mice as disease-free controls. […] Vehicle (saline solution) daily injections were performed in the same way. Unless indicated, treatment was initiated 4 weeks posttransplant, when animals evidenced peripheral blood signs of MPN. Mice were randomly distributed prior to treatment initiation, and disease development was monitored over time in peripheral blood samples, using an automated blood counter. […] Mice were sacrificed at different time points and subjected to complete necropsy; BM and spleen were analysed by histology and flow cytometry; femora and skull were used for immunostainings, and haematopoietic and stromal cells were additionally used for functional assays ex vivo.
BM cell extraction, flow cytometry and fluorescence-activated cell sorting For haematopoietic cell recovery, bones were crushed in a mortar, filtered through a 40-μm mesh to obtain single cell suspensions, and depleted of red blood cells by lysis in 0.15 M NH4Cl for 10 min at 4° C. […] Biotinylated antibodies were detected with fluorochrome-conjugated streptavidin (BD Biosciences). […]

Series [2] has as its system HSCs and MPN-initiating cells. The series can be described thus: Competitive repopulation assays using limiting cell dilutions. The class given is in vivo. The protocol: For quantification of HSC, BM cells from treated mice were used for competitive repopulation assays using limiting cell dilutions. Briefly, CD45.1+ competitor BM cells […] were transplanted into lethally irradiated CD45.2+ recipient mice, after mix with […] and 4×10^3 donor BM cells. Peripheral blood chimerism was assessed by flow cytometry every 2-4 weeks. Mice were sacrificed 16 weeks after the transplant and the BM LSK cell chimerism was assessed by flow cytometry. A minimum of 5% CD45.2+ chimerism in the LSK cell compartment was considered as positive in recipients of control BM cells. In recipients of mutant BM, mice were considered as positive (“leukaemic”) above 50% CD45.2+ chimerism. The software LCalc (StemCell Technologies) was used for quantification of HSCs and MPN-initiating cells in control and mutant donor BM, respectively.

Series [3] deals with β2 receptors (Homo sapiens, UniProt P07550). The note with it: read-out: Ki for β2 receptors; cited from earlier work.
Chain of β2 receptors (P07550 whole entry): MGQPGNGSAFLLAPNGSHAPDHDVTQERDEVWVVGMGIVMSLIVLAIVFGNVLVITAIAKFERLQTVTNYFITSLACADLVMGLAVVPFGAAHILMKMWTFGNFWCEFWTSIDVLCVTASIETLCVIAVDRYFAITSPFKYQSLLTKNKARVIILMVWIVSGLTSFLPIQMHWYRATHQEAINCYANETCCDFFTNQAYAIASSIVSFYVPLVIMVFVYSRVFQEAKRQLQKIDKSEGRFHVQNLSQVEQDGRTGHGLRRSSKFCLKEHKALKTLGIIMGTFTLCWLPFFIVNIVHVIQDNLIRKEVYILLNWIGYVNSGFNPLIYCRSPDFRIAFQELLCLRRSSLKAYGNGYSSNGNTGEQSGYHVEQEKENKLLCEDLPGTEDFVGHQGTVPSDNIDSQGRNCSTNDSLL

Entries after “also recorded” stand apart in the source; their conditions may differ.

Regarding `C[C@H](Cc1ccc(OCC(=O)O)cc1)NC[C@H](O)c1cccc(Cl)c1` [BRL37344, [4-[(2R)-2-[[(2R)-2-(3-clorophenyl)-2-hydroxyethyl]amino]propyl]phenoxy]acetic acid], in series [1] (BRL37344 2 mg kg-1 i.p. twice a day), the “blood counts in wild-type mice” value is “did not affect”. Also, the “normal HSCs / normal haematopoiesis” value in series [1] (long-term BRL37344 treatment, 16 weeks, 2 mg kg-1 twice a day i.p.) is recorded as “did not compromise; also recorded: does not compromise”. Further, the “reduction in leukemic stem cells (MPN-initiating cell frequency)” value in series [2] (BM cells from BRL37344-treated versus vehicle-treated MPN mice, 16 weeks after transplantation) is recorded as 4.5 fold. For the same molecule, the “normal HSC BM number” value in series [2] (control mice treated with BRL37344 over 4 weeks, starting 11 weeks after the transplant, non-significant) was “does not change”. In addition, the inhibition constant Ki in series [3] was 1120 nM.

The term Ki denotes the dissociation constant of the complex between target and ligand, obtained from inhibition or displacement.
